# Experimental data as given in paper PMC2289219 (The Journal of Cell Biology, 1991).
# Columns and labels:
# Bovine brain ECs = format: cell-based
# BBB = system: BBB; set-up: species or system rats; details: rat, in vivo
# cAMP levels = format: cell-based
molecule,measurement,setting,value
Atrial natriuretic factor,Effect on resistance (elevated cGMP),Bovine brain ECs,simi- lar effects
IGF-1,Whether the factor accounts for the activity of astrocyte CM,Bovine brain ECs,could not be accounted for fully
"8-(4-chlorophenylthio)-adenosine-3':5' mono- phosphate, cyclic [CPTcAMP]",Effect on electrical resistance (agents that elevate cAMP),Bovine brain ECs,increases rapidly
CN[C@@H]1C[C@H]2O[C@@](C)([C@@H]1OC)n1c3ccccc3c3c4c(c5c6ccccc6n2c5c31)C(=O)NC4 [staurosporine],Increase in ability of peripherally administered BSA to enter the brain,BBB,three to fivefold
same,Increase in ability of peripherally administered sucrose to enter the brain,BBB,three to fivefold
CC(C)NCC(O)COc1cccc2ccccc12 (centres unmarked) [propranolol],Flux across high resistance monolayers,"monolayers of brain ECs; Fig. 7 top, about 300 nM labeled tracer, apical to basolateral, 37",moved rapidly
PDGF,Whether the factor accounts for the activity of astrocyte CM,Bovine brain ECs,could not be accounted for fully
calcitonin gene-related peptide,Effect on electrical resistance (agents that elevate cAMP),Bovine brain ECs,also effective
"O=S(=O)(NCCNCC=Cc1ccc(Br)cc1)c1cccc2cnccc12 [H-89, N-[2-(p-bromocinnamylamino)ethyl]-5-isoquinolinesulfonamide]",Effect of protein kinase inhibitors on resistance,Bovine brain ECs,decreased
RO20-1724,Effect on electrical resistance (agents that elevate cAMP),Bovine brain ECs,increases rapidly
same,Increase in cAMP levels,cAMP levels,two to threefold increase
OC[C@H]1O[C@@](CO)(O[C@H]2O[C@H](CO)[C@@H](O)[C@H](O)[C@H]2O)[C@@H](O)[C@@H]1O [sucrose],Flux across low resistance monolayers,monolayers of brain ECs,much greater than that across high resistance monolayers
C=C[C@@]1(C)CC(=O)[C@]2(O)[C@@]3(C)[C@@H](O)CCC(C)(C)[C@@H]3[C@H](O)[C@H](OC(C)=O)[C@@]2(C)O1 [forskolin],Effect on electrical resistance (agents that elevate cAMP),Bovine brain ECs,also effective
same,Increase in cAMP levels,cAMP levels,two to threefold increase
